From patent publication US11446287B2, “Compounds and methods for EP300 or CBP modulation and indications therefor” (Opna Immuno-Oncology SA, priority 2019, dated 2022)

biological target: T1, Recombinant human BRD4 containing dual bromodomains (BRD4-BD12 (1-477)) (Homo sapiens, UniProt O60885); test: BRD4 Alphascreen binding assay
T1 construct: Recombinant human BRD4 containing dual bromodomains (BRD4-BD12 (1-477)); made in house; host or cells: E. coli BL21-CodonPlus (DE3), modified pET vector
Method in brief: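 AlphaScreen proximity between Ni-chelate-bound BRD4-BD12 (1-477) and streptavidin-captured H4 K5/K8/K12/K16-acetyl peptide measured after 1 h room-temperature compound incubation and 30 min with 7.5 μg/ml beads. Buffer: 50 mM HEPES pH 7.5, 50 mM NaCl, 0.01% BSA, 0.01% Triton X-100; data plate-normalized and four-parameter fit for IC50.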

CCOc1cc(C(=O)O)cc(OCC)c1-n1cc(-c2ccc(OC)cc2F)c2ncc(-c3c(C)noc3C)cc21 [P-0194, 4-(6-(3,5-dimethylisoxazol-4-yl)-3-(2-fluoro-4-methoxyphenyl)-1H-pyrrolo[3,2-b]pyridin-1-yl)-3,5-diethoxybenzoic acid] and CCOc1cc(C(=O)O)cc(OCC)c1-n1cc(-c2ccc(C#N)cc2F)c2ncc(-c3c(C)noc3C)cc21 [P-0217, 4-(3-(4-cyano-2-fluorophenyl)-6-(3,5-dimethylisoxazol-4-yl)-1H-pyrrolo[3,2-b]pyridin-1-yl)-3,5-diethoxybenzoic acid] fall in the same range of IC50: 1 to 8 µM for the first, 1 to 8 µM for the second.

CCOc1cc(C(=O)O)cc(OCC)c1-n1cc(-c2cnn(C)c2)c2ncc(-c3c(C)noc3C)cc21 [P-0195, 4-(6-(3,5-dimethylisoxazol-4-yl)-3-(1-methyl-1H-pyrazol-4-yl)-1H-pyrrolo[3,2-b]pyridin-1-yl)-3,5-diethoxybenzoic acid] and CCOc1cc(C(=O)O)cc(OCC)c1-n1cc(-c2cnc(OC)nc2)c2ncc(-c3c(C)noc3C)cc21 [P-0201, 4-(6-(3,5-dimethylisoxazol-4-yl)-3-(2-methoxypyrimidin-5-yl)-1H-pyrrolo[3,2-b]pyridin-1-yl)-3,5-diethoxybenzoic acid] fall in the same range of IC50: 1 to 8 µM for the first, 1 to 8 µM for the second.

Cc1noc(C)c1-c1cnc2c(-c3ccccc3)cn(-c3ccc(C(=O)O)cc3OC(F)(F)F)c2c1 [P-0196, 4-(6-(3,5-dimethylisoxazol-4-yl)-3-phenyl-1H-pyrrolo[3,2-b]pyridin-1-yl)-3-(trifluoromethoxy)benzoic acid] and Cc1noc(C)c1-c1cnc2c(c1)c(-c1ccc(C(=O)O)cc1OC(F)(F)F)cn2-c1ccccc1F [P-0223, 4-(5-(3,5-dimethylisoxazol-4-yl)-1-(2-fluorophenyl)-1H-pyrrolo[2,3-b]pyridin-3-yl)-3-(trifluoromethoxy)benzoic acid] fall in the same range of IC50: 1 to 8 µM for the first, 1 to 8 µM for the second.

Cc1noc(C)c1-c1cnc2c(c1)c(-c1c(Cl)cc(C(=O)O)cc1Cl)cn2[C@@H](C)c1ccccn1 [P-0197, (S)-3,5-dichloro-4-(5-(3,5-dimethylisoxazol-4-yl)-1-(1-(pyridin-2-yl)ethyl)-1H-pyrrolo[2,3-b]pyridin-3-yl)benzoic acid] and Cc1noc(C)c1-c1cnc2c(c1)c(-c1c(Cl)cc(C(=O)O)cc1OC(F)(F)F)cn2C(C1CC1)C1CC1 [P-0198, 3-chloro-4-(1-(dicyclopropylmethyl)-5-(3,5-dimethylisoxazol-4-yl)-1H-pyrrolo[2,3-b]pyridin-3-yl)-5-(trifluoromethoxy)benzoic acid] fall in the same range of IC50: 8 to 1000 µM for the first, 8 to 1000 µM for the second.

Cc1noc(C)c1-c1cnc2c(c1)c(-c1ccc(C(=O)O)cc1OC(F)(F)F)cn2C(CC#N)C1CC1 (stereo not shown) [P-0199, 4-(1-(2-cyano-1-cyclopropylethyl)-5-(3,5-dimethylisoxazol-4-yl)-1H-pyrrolo[2,3-b]pyridin-3-yl)-3-(trifluoromethoxy)benzoic acid] and Cc1noc(C)c1-c1cnc2c(c1)c(-c1ccc(C(=O)O)cc1OC(F)(F)F)cn2C(CC#N)C1CCCC1 (stereo not shown) [P-0200, 4-(1-(2-cyano-1-cyclopentylethyl)-5-(3,5-dimethylisoxazol-4-yl)-1H-pyrrolo[2,3-b]pyridin-3-yl)-3-(trifluoromethoxy)benzoic acid] fall in the same range of IC50: 8 to 1000 µM for the first, 8 to 1000 µM for the second.

Compared with Cc1noc(C)c1-c1cnc2c(c1)c(-c1ccc(C(=O)O)cc1OC(F)(F)F)cn2S(=O)(=O)C1CC1 [P-0202, 4-(1-(cyclopropylsulfonyl)-5-(3,5-dimethylisoxazol-4-yl)-1H-pyrrolo[2,3-b]pyridin-3-yl)-3-(trifluoromethoxy)benzoic acid], Cc1noc(C)c1-c1cnc2c(c1)c(-c1ccc(C(=O)O)cc1OC(F)(F)F)cn2C1CCS(=O)(=O)CC1 [P-0212, 4-(5-(3,5-dimethylisoxazol-4-yl)-1-(1,1-dioxidotetrahydro-2H-thiopyran-4-yl)-1H-pyrrolo[2,3-b]pyridin-3-yl)-3-(trifluoromethoxy)benzoic acid] is higher in IC50: 1 to 8 µM for the first, 8 to 1000 µM for the second. The first is the more potent here.

Cc1noc(C)c1-c1cnc2c(c1)c(-c1ccc(C(=O)O)cc1OC(F)(F)F)cn2-c1ccnc(C(C)C)c1 [P-0203, 4-(5-(3,5-dimethylisoxazol-4-yl)-1-(2-isopropylpyridin-4-yl)-1H-pyrrolo[2,3-b]pyridin-3-yl)-3-(trifluoromethoxy)benzoic acid] and Cc1cnccc1-n1cc(-c2ccc(C(=O)O)cc2OC(F)(F)F)c2cc(-c3c(C)noc3C)cnc21 [P-0211, 4-(5-(3,5-dimethylisoxazol-4-yl)-1-(3-methylpyridin-4-yl)-1H-pyrrolo[2,3-b]pyridin-3-yl)-3-(trifluoromethoxy)benzoic acid] fall in the same range of IC50: 1 to 8 µM for the first, 1 to 8 µM for the second.

Compared with Cc1noc(C)c1-c1cnc2c(c1)c(-c1ccc(C(=O)O)cc1OC(F)(F)F)cn2-c1cnccc1C#N [P-0204, 4-(1-(4-cyanopyridin-3-yl)-5-(3,5-dimethylisoxazol-4-yl)-1H-pyrrolo[2,3-b]pyridin-3-yl)-3-(trifluoromethoxy)benzoic acid], Cc1noc(C)c1-c1cnc2c(c1)c(-c1ccc(C(=O)O)cc1OC(F)(F)F)cn2-c1ncccc1C#N [P-0215, 4-(1-(3-cyanopyridin-2-yl)-5-(3,5-dimethylisoxazol-4-yl)-1H-pyrrolo[2,3-b]pyridin-3-yl)-3-(trifluoromethoxy)benzoic acid] is lower in IC50: 8 to 1000 µM for the first, 1 to 8 µM for the second.

First: CCOc1cc(C(=O)O)cc(F)c1-n1cc(-c2ccccc2)c2ncc(-c3c(C)noc3C)cc21 [P-0205, 4-(6-(3,5-dimethylisoxazol-4-yl)-3-phenyl-1H-pyrrolo[3,2-b]pyridin-1-yl)-3-ethoxy-5-fluorobenzoic acid]
Second: COc1cc(C(=O)O)cc(OC)c1-n1cc(-c2ccccc2)c2ncc(-c3c(C)noc3C)cc21 [P-0220, 4-(6-(3,5-dimethylisoxazol-4-yl)-3-phenyl-1H-pyrrolo[3,2-b]pyridin-1-yl)-3,5-dimethoxybenzoic acid]
The IC50 of the first is higher: 1 to 8 µM for the first, 0.0001 to 1 µM for the second.

First: CCOc1cccc(C#N)c1-n1cc(-c2ccccc2)c2ncc(-c3c(C)noc3C)cc21 [P-0206, 2-(6-(3,5-dimethylisoxazol-4-yl)-3-phenyl-1H-pyrrolo[3,2-b]pyridin-1-yl)-3-ethoxybenzonitrile]
Second: CCOc1cccc(Cl)c1-n1cc(-c2ccccc2)c2ncc(-c3c(C)noc3C)cc21 [P-0224, 4-(1-(2-chloro-6-ethoxyphenyl)-3-phenyl-1H-pyrrolo[3,2-b]pyridin-6-yl)-3,5-dimethylisoxazole]
The IC50 of the first is higher: 8 to 1000 µM for the first, 1 to 8 µM for the second. The second is the more potent here.

First: Cc1noc(C)c1-c1cnc2c(-c3ccccc3)cn(-c3c(Cl)cccc3C#N)c2c1 [P-0207, 3-chloro-2-(6-(3,5-dimethylisoxazol-4-yl)-3-phenyl-1H-pyrrolo[3,2-b]pyridin-1-yl)benzonitrile]
Second: COc1cccc(OC)c1-n1cc(-c2ccccc2)c2ncc(-c3c(C)noc3C)cc21 [P-0221, 4-(1-(2,6-dimethoxyphenyl)-3-phenyl-1H-pyrrolo[3,2-b]pyridin-6-yl)-3,5-dimethylisoxazole]
The IC50 of the first is lower: 1 to 8 µM for the first, 8 to 1000 µM for the second. The first is the more potent here.

CCOc1cc(C(=O)O)cc(OCC)c1-n1cc(C2=CCC(F)(F)CC2)c2ncc(-c3c(C)noc3C)cc21 [P-0208, 4-(3-(4,4-difluorocyclohex-1-en-1-yl)-6-(3,5-dimethylisoxazol-4-yl)-1H-pyrrolo[3,2-b]pyridin-1-yl)-3,5-diethoxybenzoic acid] and CCOc1cc(C(=O)O)cc(OCC)c1-n1cc(-c2ccnc(F)c2)c2ncc(-c3c(C)noc3C)cc21 [P-0222, 4-(6-(3,5-dimethylisoxazol-4-yl)-3-(2-fluoropyridin-4-yl)-1H-pyrrolo[3,2-b]pyridin-1-yl)-3,5-diethoxybenzoic acid] fall in the same range of IC50: 1 to 8 µM for the first, 1 to 8 µM for the second.

CCOc1cc(C(=O)O)cc(OCC)c1-n1cc(-c2ccc(F)c(Cl)c2)c2ncc(-c3c(C)noc3C)cc21 [P-0209, 4-(3-(3-chloro-4-fluorophenyl)-6-(3,5-dimethylisoxazol-4-yl)-1H-pyrrolo[3,2-b]pyridin-1-yl)-3,5-diethoxybenzoic acid] and CCOc1cc(C(=O)O)cc(OCC)c1-n1cc(-c2ccc(C(=O)NC3CC3)cc2)c2ncc(-c3c(C)noc3C)cc21 [P-0218, 4-(3-(4-(cyclopropylcarbamoyl)phenyl)-6-(3,5-dimethylisoxazol-4-yl)-1H-pyrrolo[3,2-b]pyridin-1-yl)-3,5-diethoxybenzoic acid] fall in the same range of IC50: 1 to 8 µM for the first, 1 to 8 µM for the second.

Compared with CCOc1cc(C(=O)O)cc(OCC)c1-n1cc(CC2CCC2)c2ncc(-c3c(COC)noc3C)cc21 [P-0210, 4-(3-(cyclobutylmethyl)-6-(3-(methoxymethyl)-5-methylisoxazol-4-yl)-1H-pyrrolo[3,2-b]pyridin-1-yl)-3,5-diethoxybenzoic acid], COC(=O)c1cc(OC)c(-n2cc(-c3ccccc3)c3ncc(-c4c(C)noc4C)cc32)c(OC)c1 [P-0219, methyl 4-(6-(3,5-dimethylisoxazol-4-yl)-3-phenyl-1H-pyrrolo[3,2-b]pyridin-1-yl)-3,5-dimethoxybenzoate] is lower in IC50: 8 to 1000 µM for the first, 1 to 8 µM for the second.

Cc1noc(C)c1-c1cnc2c(c1)c(-c1ccc(C(=O)O)cc1OC(C)C)cn2C(C1CC1)C1CC1 [P-0213, 4-(1-(dicyclopropylmethyl)-5-(3,5-dimethylisoxazol-4-yl)-1H-pyrrolo[2,3-b]pyridin-3-yl)-3-isopropoxybenzoic acid] and Cc1noc(C)c1-c1cnc2c(c1)c(-c1ccc(C(=O)O)cc1OCC(F)(F)F)cn2C(C1CC1)C1CC1 [P-0214, 4-(1-(dicyclopropylmethyl)-5-(3,5-dimethylisoxazol-4-yl)-1H-pyrrolo[2,3-b]pyridin-3-yl)-3-(2,2,2-trifluoroethoxy)benzoic acid] fall in the same range of IC50: 8 to 1000 µM for the first, 8 to 1000 µM for the second.

Molecule Cc1noc(C)c1-c1cnc2c(c1)c(-c1ccc(C(=O)O)cc1OC(F)(F)F)cn2-c1ncccc1C#CC1CC1 [P-0216, 4-(1-(3-(cyclopropylethynyl)pyridin-2-yl)-5-(3,5-dimethylisoxazol-4-yl)-1H-pyrrolo[2,3-b]pyridin-3-yl)-3-(trifluoromethoxy)benzoic acid] has an IC50 of 8 to 1000 µM.
